{"source": "patent US11959096B2", "about": "“Methods for selective inhibition of pluripotent stem cells” (THE MEDICAL COLLEGE OF WISCONSIN, INC., priority 2014, dated 2024)", "key": {"hiPSC [1]": {"test_system": "hiPSC", "test": "Live/dead staining (calcein AM / ethidium homodimer-1)", "type": "cell-based, human", "protocol": "(§1) In Vitro Toxicity Assays: Treatment with small molecules or glucose deprivation was initiated in hESC or hiPSC at 24 and 96 h post-plating and in vitro toxicity assays were performed at specified treatment endpoints 24-96 hours after treatment initiation. […] Neutral red assays for cell viability were performed as previously described. In vitro cell death was determined using SYTOX® Green nucleic acid stain (Life Technologies). Briefly, cells were incubated in 5 μM SYTOX® Green for 30 minutes at 37° C. in a humidified cell incubator with 5% CO2. Percent cell viability was determined by normalizing to replicate cells incubated with 120 μM digitonin (Sigma-Aldrich) and 5 μM SYTOX® Green. Imaging of cell viability was performed using Live/Dead® Viability/Cytotoxicity Kit, for mammalian cells (Life Technologies). Cells were stained for 20 minutes at room temperature with 4 μM Calcein AM to detect viable cells and 2 μM Ethidium Homodimer 1 to detect cells with compromised membranes. Representative images of alterations in cell morphology were acquired on confluent hPSC 24-72 hours after treatment initiation. Imaging was performed with a Nikon Ti-U inverted microscope."}, "H1 hESC colonies": {"test_system": "H1 hESC colonies", "test": "Elimination of hESC colonies grown on human fibroblast feeders (alkaline phosphatase staining, brightfield)", "type": "cell-based"}, "confluent hiPSC": {"test_system": "confluent hiPSC", "test": "Colony formation assay (alkaline phosphatase staining)", "type": "cell-based, human", "conditions": "for colony formation: 24 hours treatment, no passaging, six days", "protocol": "The first iteration was adapted from previously described method, after 24 hours of treatment, hiPSC were detached with Accutase (StemCell Technologies), re-suspended in E8, passed though 12×75 mm tube with cell strainer cap (Falcon), and plated at 5e4 live cells per 2 cm^2. Media were changed every 48 hours and cells were cultured for six days, at which time staining for alkaline phosphatase was performed with leukocyte alkaline phosphatase kit (Sigma-Aldrich) as described and plates were visually inspected for phosphatase-positive colonies. This strategy represents the most common implementation of the colony formation assay. However, concerns regarding the cell death normally encountered during passaging prompted another approach for stricter assessment. In the second iteration, cells were treated for 24 hours, washed twice with 0.5 mL D-PBS, and media refreshed with E8. Thereafter, media were replaced daily for six days at which point staining for alkaline phosphatase activity was performed. […] Elimination of hiPSC from co-cultures with differentiated cells was performed with human fibroblasts and day 10 cardiomyocytes derived from hiPSC. hiPSC (DF6-9-9T) were plated at concentrations ranging from 100-10,000 live cells per well with human fibroblasts (1.75e5 cells) or day 10 differentiated cardiomyocytes (3.75e5 cells) in E8 and Y-27632 per 9.6 cm^2. […] Six days after plating, staining for alkaline phosphatase activity was performed. […] Imaging of wells was performed with a Sony Cyber-shot DSC-TX30 and individual colonies with a Nikon stereoscope."}, "human fibroblasts [2]": {"test_system": "human fibroblasts", "test": "Neutral red viability assay in fibroblasts", "type": "cell-based", "conditions": "24 hour treatment, 100 μM"}, "[3]": {"test_system": "DF6-9-9T hiPSC-derived cardiomyocytes", "test": "Neutral red viability assay in hiPSC-derived cardiomyocytes", "type": "cell-based", "conditions": "24 hour pulse treatment", "protocol": "as §1"}, "[4]": {"test_system": "day 10 cardiomyocytes derived from hiPSC (DF6-9-9T)", "test": "Characterization of cardiomyocytes after STF-31 (contractility, flow cytometry, immunofluorescence, qPCR)", "type": "cell-based, human", "protocol": "Quantitative-real time PCR for TNNI3, Troponin T2 (TNNT2), and Homeobox protein Nkx-2.5 (NKX2-5) was performed as previously described using Taqman® Assays […] Cells were then fixed with 4% paraformaldehyde, permeabilized with 0.2% Triton-X, incubated with primary antibody for Troponin T (TNNT2) (Abcam: ab8295) overnight at 4° C. Cells were then incubated in secondary antibody goat anti-mouse IgG1-Alexa 568 (Life Tech: A-21124) and nuclei were detected with Hoechst 33342 (Life Tech: H21492). Cells were imaged with a Nikon Ti-U inverted microscope and Nikon Eclipse 90i confocal microscope."}, "hiPSC [5]": {"test_system": "hiPSC", "test": "Extracellular flux analysis (ECAR, OCR)", "type": "cell-based, human", "protocol": "Extracellular Flux Analysis: hiPSC were plated at 6e4 cells per well on specialized microplate (Seahorse Bioscience) as previously described with several exceptions. Extracellular flux analysis was performed on hiPSC 48 hours post-plating using Seahorse Bioscience XF24 Analyzer. […] The microplate was equilibrated in non-CO2 incubator for 1.5 h, and analyzed for 16 h in Seahorse Bioscience XF24 Analyzer. Assay medium consists of basal E8 reagents with the following exceptions: basal DMEM F-12 without phenol red (Gibco), no sodium bicarbonate, and 2.5 mM GlutaMAX™ (Gibco) and 15 mM Hepes (Gibco). Assay medium was adjusted to pH 7.4 at 37° C. prior to use. Extracellular acidification rate (ECAR) and basal oxygen consumption rate (OCR) were collected approximately every 60 minutes. Treatments were normalized to baseline media control value and are represented as average of thee biological replicates."}, "sub-confluent hiPSC [6]": {"test_system": "sub-confluent hiPSC", "test": "Glucose uptake assay ([3H]2-deoxyglucose)", "type": "cell-based, human", "protocol": "For 1 hour treatment, cells were placed in Krebs-Ringer Hepes (KRH) containing treatment at 37° C. in a humidified cell incubator with 5% CO2. For 15, 18, and 24 hour treatments, cells were treated in E8 medium for 14, 17, and 23 hours, respectively, at which point media was changed to KRH buffer containing specific treatment for 1 hour. After specified treatment time, glucose uptake was performed with 0.5 μCi [^3H]2-deoxyglucose for 5 min at 37° C. as previously described. Uptake data were normalized to protein concentration measured with Lowry method."}, "sub-confluent hiPSC [7]": {"test_system": "sub-confluent hiPSC", "test": "Cleaved caspase-3/7 fluorescence based assay", "type": "cell-based, human", "conditions": "after initiation of treatment; 2.5 μM STF-31, 30 μM WZB117"}, "[8]": {"test_system": "mesenchymal stem cells, fibroblasts, retinal pigmented epithelial cells, hiPSC-derived cardiomyocytes, specified hepatic endoderm cells, neural progenitors", "type": "cell-based", "conditions": "2.5 μM for 72 hours", "protocol": "(C) Human iPSC-derived neural progenitors were treated with 2.5 μM for 72 hours and assessed by MTT assay (top; day 10 and day 12 progenitors) and immunofluorescence (bottom; day 12 progenitors shown).\nViability measurements were consistent with these visual observations. See data for cardiomyocytes, neural progenitors, and fibroblasts in FIGS. 8B-C). […] See Boheler et al., Stem Cell Reports 3, 185-203 (2014)."}, "human fibroblasts [9]": {"test_system": "human fibroblasts", "conditions": "treatment time extended to 72 hours; previous report [19]; cited from earlier work"}, "[10]": {"conditions": "5 μM 24 hour pulse, 72 hours after treatment initiation"}}}
{"molecule": "CC(C)(C)c1ccc(S(=O)(=O)NCc2ccc(C(=O)Nc3cccnc3)cc2)cc1", "note": "[STF-31, 4-[[[[4-(1,1-Dimethylethyl)phenyl]sulfonyl]amino]methyl]-N-3-pyridinyl-benzamide]", "values": [{"measurement": "live/dead staining", "setting": "hiPSC [1]; 48 hours, 2.5 μM STF-31", "value": "small patches of live cells remained"}, {"measurement": "live/dead staining", "setting": "hiPSC [1]; 72 hours, confluent, 2.5 μM STF-31, 30 μM WZB117, 20 μM PluriSIn", "value": "not visible"}, {"measurement": "colonies by alkaline phosphatase staining", "setting": "H1 hESC colonies; after 96 hours of treatment, 2.5 μM", "value": "Colonies were not detected"}, {"measurement": "time at which toxicity occurs", "setting": "H1 hESC colonies; hESC colonies on human fibroblast feeder cells, 2.5 μM", "value": "48 to 72", "unit": "h"}, {"measurement": "colony growth after passaging", "setting": "H1 hESC colonies; passaged 96 hours after treatment initiation, cultured additional 72 hours", "value": "No colony growth or alkaline phosphatase activity was detected"}, {"measurement": "formation of alkaline phosphatase-positive colonies", "setting": "confluent hiPSC; 24 hour pulse, cells passaged, cultured 6 days", "value": "prevented the formation of alkaline phosphatase-positive colonies"}, {"measurement": "colony formation", "setting": "confluent hiPSC; 2.5 μM STF-31", "value": "a limited number of colonies formed"}, {"measurement": "colony formation", "setting": "confluent hiPSC; 5 μM STF-31", "value": "no colonies were observed"}, {"measurement": "reduction of fibroblast viability", "setting": "human fibroblasts [2]", "value": 30, "unit": "%"}, {"measurement": "LD50", "setting": "[3]", "value": 40, "unit": "µM"}, {"measurement": "LD50 cardiomyocytes relative to hiPSC", "setting": "[3]", "value": 22, "unit": "fold"}, {"measurement": "expression of cardiac genes (q-PCR)", "setting": "[4]; 5 μM 24 hour pulse, 24-72 hours after initiation", "value": "not significantly altered"}, {"measurement": "abundance of cardiac markers TNNI3 and IRX4 (flow cytometry)", "setting": "[4]; [10]", "value": "did not affect abundance"}, {"measurement": "structural organization of TNNT2", "setting": "[4]; [10]", "value": "maintained comparable structural organization"}, {"measurement": "cardiomyocyte spontaneous contractility", "setting": "[4]; 5 μM for 24 hours, day 10 cardiomyocytes", "value": "did not affect cardiomyocyte spontaneous contractility"}, {"measurement": "contractions, protein and mRNA levels of cardiomyocyte markers, structural features compared with controls", "setting": "[4]; treated on day 5 and day 10 of differentiation", "value": "indistinguishable from controls"}, {"measurement": "delay of decrease in ECAR compared to inhibitors of glucose oxidation", "setting": "hiPSC [5]; 2.5 μM STF-31", "value": "up to 15 hours"}, {"measurement": "time before reductions in OCR", "setting": "hiPSC [5]; 2.5 μM STF-31, 30 μM WZB117", "value": 15, "unit": "h"}, {"measurement": "first time point with decrease in glucose uptake", "setting": "sub-confluent hiPSC [6]; 2.5 μM STF-31", "value": 18, "unit": "h"}, {"measurement": "decrease in glucose uptake", "setting": "sub-confluent hiPSC [6]; 1 hour of treatment, 2.5 μM STF-31, 30 μM WZB117", "value": "did not alter glucose uptake"}, {"measurement": "time of induction of caspase-3/7 activity", "setting": "sub-confluent hiPSC [7]", "value": 24, "unit": "h"}, {"measurement": "visible changes in morphology or cell death", "setting": "[8]", "value": "None of these cell types exhibited visible changes in morphology or obvious cell death"}, {"measurement": "cell viability", "setting": "human fibroblasts [9]", "value": "did not result in a decrease in cell viability"}]}
